The test relates to M. mycetomatis genome strain MM55. The experiment in a line: CLSI M38-A2 based in vitro susceptibility screening (XTT or resazurin), growth at fixed concentration. The class given is cell-based, Madurella mycetomatis. Conditions: Madurella mycetomatis; for Percent fungal survival at 100 µM: read-out: Percentage survival at 100um, 100 uM A (second replicate column).
[1] abbreviates: 25 uM, replicate A, read-out: Percentage survival at 25um, 25 um A.
Setting [2] is: first replicate column, read-out: Percentage survival at 100um, 100 uM A.
Setting [3] is: mean of three replicates, read-out: Percentage survival at 100um, 100 uM mean.
[4] abbreviates: second replicate column, read-out: Percentage survival at 100um, 100 uM A.
Where [5] appears, read: third replicate column, read-out: Percentage survival at 100um, 100 uM A.
The mark [6] stands for this setting: 25 uM, mean of replicates, read-out: Percentage survival at 25um, 25 uM mean.
[7] abbreviates: 25 uM, replicate B, read-out: Percentage survival at 25um, 25 uM B.
[8] abbreviates: 25 uM, replicate C, read-out: Percentage survival at 25um, 25 uM C.
[9] abbreviates: mean of replicates, read-out: Percentage survival at 100um, 100 uM mean.
Setting [10] is: replicate 1, read-out: Percentage survival at 100um, 100 uM A.
Where [11] appears, read: replicate 2, read-out: Percentage survival at 100um, 100 uM A.
[12] abbreviates: replicate 3, read-out: Percentage survival at 100um, 100 uM A.
Where [13] appears, read: 25 uM, mean of three replicates, read-out: Percentage survival at 25um, 25 uM mean.
Where [14] appears, read: replicate 1, read-out: Percentage survival at 100um, 100 uM A (first replicate column).
Setting [15] is: replicate 3, read-out: Percentage survival at 100um, 100 uM A (third replicate column).
Where [16] appears, read: 25 uM, mean, read-out: Percentage survival at 25um, 25 uM mean.
The mark [17] stands for this setting: mean, read-out: Percentage survival at 100um, 100 uM mean.
[18] abbreviates: replicate (first column), read-out: Percentage survival at 100um, 100 uM A.
[19] abbreviates: replicate (second column), read-out: Percentage survival at 100um, 100 uM A.
Where [20] appears, read: replicate (third column), read-out: Percentage survival at 100um, 100 uM A.
Setting [21] is: 25 uM, mean of three, M. mycetomatis MM55, read-out: Percentage survival at 25um, 25 uM mean.
[22] abbreviates: 25 uM, replicate A, M. mycetomatis MM55, read-out: Percentage survival at 25um, 25 um A.
Setting [23] is: 25 uM, replicate B, M. mycetomatis MM55, read-out: Percentage survival at 25um, 25 uM B.
The mark [24] stands for this setting: 25 uM, replicate C, M. mycetomatis MM55, read-out: Percentage survival at 25um, 25 uM C.
The mark [25] stands for this setting: mean of three, M. mycetomatis MM55, read-out: Percentage survival at 100um, 100 uM mean.
[26] abbreviates: replicate 1, M. mycetomatis MM55, read-out: Percentage survival at 100um, 100 uM A (first replicate column).
Setting [27] is: replicate 2, M. mycetomatis MM55.
Where [28] appears, read: replicate 3, M. mycetomatis MM55, read-out: Percentage survival at 100um, 100 uM A (third replicate column).
The mark [29] stands for this setting: 25 uM, mean of replicates, MM55, read-out: Percentage survival at 25um, 25 uM mean.
[30] abbreviates: 25 uM, replicate A, MM55, read-out: Percentage survival at 25um, 25 um A.
Setting [31] is: 25 uM, replicate B, MM55, read-out: Percentage survival at 25um, 25 uM B.
Where [32] appears, read: 25 uM, replicate C, MM55, read-out: Percentage survival at 25um, 25 uM C.
The mark [33] stands for this setting: mean of replicates, MM55, read-out: Percentage survival at 100um, 100 uM mean.
The mark [34] stands for this setting: replicate 1, MM55, read-out: Percentage survival at 100um, 100 uM A.
Where [35] appears, read: replicate 2, MM55, read-out: Percentage survival at 100um, 100 uM A.
Setting [36] is: replicate 3, MM55, read-out: Percentage survival at 100um, 100 uM A.

Molecules are shown by their SMILES. Where two headings read alike, the source gives them in different places.

With `CCCCc1ccc(C(=O)O)nc1` [MMV001726], the activity at 25 µM is 92.6% under setting [1]; 104% (read-out: Percentage survival at 25um, 25 uM B); 77.4% (read-out: Percentage survival at 25um, 25 uM C); 91.3% (read-out: Percentage survival at 25um, 25 uM mean). For the same compound, the activity at 100 µM came out at 91.2% under setting [2], 74.3% under setting [3], 61.7% under setting [4] and 69.8% under setting [5].

On to `C=CCc1cc(Cc2cnc(N)nc2N)cc(OC)c1O` [MMV1580849], for which the activity at 25 µM by setting is: under setting [6], 96.4%; under setting [1], 100%; under setting [7], 95.7%; under setting [8], 93.6%. In addition, the activity at 100 µM was found to be 91.3% under setting [9], 101% under setting [10], 86.2% under setting [11] and 86.7% under setting [12].

With `CC(C)(C)NC(=O)[C@@H]1C[C@@H]2CCCC[C@@H]2CN1C[C@@H](O)[C@H](Cc1ccccc1)NC(=O)[C@H](CC(N)=O)NC(=O)c1ccc2ccccc2n1` [MMV637879], the activity at 25 µM is, setting by setting: under setting [13], 92.5%; under setting [1], 98.2%; under setting [7], 97.6%; under setting [8], 81.5%. In addition, the activity at 100 µM runs as follows: under setting [2], 102%; under setting [3], 93.3%; under setting [4], 95.3%; under setting [5], 82.8%.

As for `CCc1nc(N)nc(N)c1C#CCc1ccccc1` [MMV1581549], the activity at 25 µM reads like this: under setting [13], 92.3%; under setting [1], 59.8%; under setting [7], 78.6%; under setting [8], 138%. The activity at 100 µM is, setting by setting: under setting [3], 2.68%; under setting [14], 1.33%; under setting [15], 5.46%. For the same compound, where the note is “replicate 2”, the Percent fungal survival at 100 µM was 1.24%.

In the case of `O=C(O)CCNC(=O)c1ccccc1` [MMV002224], the activity at 25 µM reads like this: under setting [6], 93.9%; under setting [1], 90.2%; under setting [7], 96.2%; under setting [8], 95.4%. Besides, the activity at 100 µM reads like this: under setting [9], 89.7%; under setting [10], 96%; under setting [11], 83.6%; under setting [12], 89.5%.

With `CCc1cc(CCCOc2c(C)cc(-c3noc(C(F)(F)F)n3)cc2C)on1` [MMV1634556], the activity at 25 µM was determined as 87% under setting [13], 70.7% under setting [1], 105% under setting [7] and 85.5% under setting [8]. In addition, the activity at 100 µM runs as follows: under setting [2], 76.5%; under setting [3], 73%; under setting [4], 74.6%; under setting [5], 68%.

Regarding `O=C(NCc1cccc2ccccc12)c1cccs1` [MMV1579845], the activity at 25 µM is, setting by setting: under setting [16], 55.9%; under setting [1], 59.6%; under setting [7], 48.9%; under setting [8], 59.3%. Also, the activity at 100 µM was determined as 35% under setting [17], 90% under setting [18], 6.29% under setting [19] and 8.86% under setting [20].

On to `Cc1c(N)cccc1Cn1ccc(OCCc2cccs2)cc1=O` [MMV1578557], for which the activity at 25 µM under setting [21] turned out to be 79.8%, the activity at 25 µM under setting [22] was 82.2%, the activity at 25 µM under setting [23] is 84.5% and the activity at 25 µM under setting [24] is 72.6%. For the same compound, the activity at 100 µM was determined as 78.3% under setting [25], 73% under setting [26] and 80% under setting [28]. Also, under setting [27], the Percent fungal survival at 100 µM turned out to be 81.9%.

On to `Cc1cc(Nc2ccc(F)cc2)nc(SCc2nc3ccccc3[nH]2)n1` [MMV1582498], for which the activity at 25 µM runs as follows: under setting [16], 92.9%; under setting [1], 99.7%; under setting [7], 99%; under setting [8], 80.1%. Further, the activity at 100 µM is, setting by setting: under setting [17], 45%; under setting [18], 67.6%; under setting [19], 17.6%; under setting [20], 49.8%.

In the case of `NNC(=O)c1ccncc1` [MMV002169], the activity at 25 µM worked out at 85.6% under setting [13], 90.1% under setting [1], 80.7% under setting [7] and 85.9% under setting [8]. The activity at 100 µM worked out at 85.3% under setting [3], 84.8% under setting [14] and 89.3% under setting [15]. In addition, the Percent fungal survival at 100 µM (replicate 2) was 81.9%.

For the compound `CCCCCOc1ccc(/C=C2\Oc3c(ccc(O)c3O)C2=O)c(O)c1` [MMV1580851], the activity at 25 µM by setting is: under setting [21], 102%; under setting [22], 93.6%; under setting [23], 82.3%; under setting [24], 129%. For the same compound, the activity at 100 µM runs as follows: under setting [25], 90%; under setting [26], 82.6%; under setting [28], 89%. For the same compound, the Percent fungal survival at 100 µM under setting [27] amounted to 98.4%.

`Nc1nc2c(ncn2/C=C2/CC2(CO)CO)c(=O)[nH]1` [MMV1782210]: the activity at 25 µM worked out at 94.9% under setting [29], 102% under setting [30], 100% under setting [31] and 83.3% under setting [32]. Moreover, the activity at 100 µM is 81.8% under setting [33], 89.9% under setting [34], 79.8% under setting [35] and 75.6% under setting [36].

`COc1ccc2sc3c(c2c1)NC(C)CNC3=O` (centres unmarked) [MMV1782115]: the activity at 25 µM runs as follows: under setting [13], 53.1%; under setting [1], 57.6%; under setting [7], 74.6%; under setting [8], 27.1%. Also, the activity at 100 µM under setting [3] was -0.834%, the activity at 100 µM under setting [14] was -3.17% and the activity at 100 µM under setting [15] worked out at 1.07%. Further, the Percent fungal survival at 100 µM (replicate 2) is -0.401%.

As to `O=[N+]([O-])c1cn(Cc2nc(O)nc(O)c2Br)cn1` [MMV1579777], the activity at 25 µM came to 94.1% under setting [6], 98.9% under setting [1], 96.8% under setting [7] and 86.6% under setting [8]. Also, the activity at 100 µM reads like this: under setting [9], 87.1%; under setting [10], 96.7%; under setting [11], 83.9%; under setting [12], 80.7%.

In the case of `O=C(N[C@H](CCS)C(=O)N[C@H](Cc1ccccc1)C(=O)O)c1cc2ccccc2[nH]1` [MMV1581557], the activity at 25 µM under setting [6] worked out at 85.4%, the activity at 25 µM under setting [1] amounted to 88.1%, the activity at 25 µM under setting [7] amounted to 98.1% and the activity at 25 µM under setting [8] is 70%. The activity at 100 µM under setting [9] is 83.1%, the activity at 100 µM under setting [10] was determined as 82.1%, the activity at 100 µM under setting [11] amounted to 85.3% and the activity at 100 µM under setting [12] came out at 81.8%.

As to `Cc1c(F)cccc1NC(=O)Nc1ccc(Cl)c(S(=O)(=O)[C@H]2CCCNC2)c1O` [MMV1581034], the activity at 25 µM under setting [29] is 83.9%, the activity at 25 µM under setting [30] was found to be 82%, the activity at 25 µM under setting [31] stood at 88.9% and the activity at 25 µM under setting [32] was determined as 80.7%. For the same compound, the activity at 100 µM stood at 77.6% under setting [33], 82.8% under setting [34], 73.6% under setting [35] and 76.3% under setting [36].

The values are drawn from PMC8815882, “Screening the pandemic response box identified benzimidazole carbamates, Olorofim and ravuconazole as promising drug candidates for the treatment of eumycetoma” (PLoS Neglected Tropical Diseases, 2022).
